Test results reported in patent US20120058983A1, “Adenosine A1 agonists for the treatment of glaucoma and ocular hypertension” (BAYER PHARMA AKTIENGESELLSCHAFT, priority 2010, published 2012).

Columns and labels:
[1] = test system: rabbits; details: rabbits (Lit. 6,7,8); cited from earlier work
[2] = test system: cynomolgus monkeys; details: cynomolgus monkeys (Lit. 9); cited from earlier work
[3] = test system: Wistar rats; assay: IOP measurements in rats (topical administration to the eye; IOP and hemodynamic parameters); format: in vivo, rat
Method: Wistar rats with a body weight of about 300 g were anesthetized with isoflurane (2-3% in O2:N2O=1:2). The test compounds were diluted in 0.9% sodium chloride and given by topical administration to the eye in 10 μl volume at a concentration of 10 mg/ml. IOP was measured with a rebound tonometer (TonoLab) at different time points after application of the drugs. Ocular pressure and effects of hemodynamic parameters can be monitored in this model.
N^6-Cyclopentyl-Adenosine and Example 1 reduce IOP at a volume of 10 μl (concentration 10 mg/ml).

For `OC[C@H]1O[C@@H](n2cnc3c(NC4CCCCC4)ncnc32)[C@H](O)[C@@H]1O` [CHA, N6-cyclohexyl-adenosine], the intraocular pressure [1] is listed as “lower intraocular pressure” and the intraocular pressure [2] is listed as “lower intraocular pressure”.

For `OC[C@H]1O[C@@H](n2cnc3c(NC4CCCC4)ncnc32)[C@H](O)[C@@H]1O` [N^6-Cyclopentyl-Adenosine], the “effects on mean arterial blood pressure / hemodynamic parameters” value ([3]; Wistar rats, 10 mg/ml (FIG. 2)) was “significantly reduces blood pressure” and the IOP ([3]; anesthetized Wistar rats, 10 μl volume, concentration 10 mg/ml, rebound tonometer (FIG. 1)) was “reduce IOP”.

In the case of `C[C@H](Cc1ccccc1)Nc1ncnc2c1ncn2[C@@H]1O[C@H](CO)[C@@H](O)[C@H]1O` [R-PIA, R(−)-N-6-(2-phenylisopropyl)adenosine], the intraocular pressure [1] is listed as “lower intraocular pressure” and the intraocular pressure [2] is listed as “lower intraocular pressure”.
